Where a name gives a salt, the structure may show the parent alone. Read-outs that look alike come from different tables or passages of the source. Marks after values point to notes of the source that are not given here.
Columns and labels:
[1] = tested on: SU-DHL-6 cells; assay: Annexin V-FITC/PI flow cytometry apoptosis assay; assay type: cell-based, human; settings: 48 h
Description: The pro-apoptotic effect of the PM/HP-β-CD complex on SU-DHL-6 cells was investigated by flow cytometry. […] cells in good condition were collected and inoculated in the six-well plate with 2⋄10^5 cells per well. After being cultured for 24 h, cells were treated with PM and PM/HP-β-CD inclusion at 3 nM and 6 nM, using LBH589 at 6 nM as the positive control. The cells without drug treatment were the negative control. After 48 h incubation, the cells were then processed by annexin V-FITC/PI staining as the manufacturer’s instructions (KeyGen, 100 assays).

[2] = tested on: SU-DHL-6 subcutaneous tumours; assay: Survival study in satellite groups of the SU-DHL-6 subcutaneous model; assay type: in vivo, NOD/SCID mice; settings: long-term treatment, death criterion tumour volume 3000 mm^3 or death
Description: (§1) To better determine the anti-tumour activity of the PM/HP-β-CD complex, the SU-DHL-6 cell line xenografts were established in immunodeficiency mice. The NOD/SCID mice were subcutaneously inoculated 7 × 10^6 cells per mouse. […] A mimic of HyperCVAD regimen, standard chemotherapy for B cell lymphoma ([22],[23]), especially aggressive subtypes, for example, double-hit lymphoma, was set as a positive control group for comparison (Table 2). Satellite groups were set up in the 10 mg/kg group, 20 mg/kg group, and the Hyper-CVAD group. Animals in the satellite groups were not sacrificed at the end of the treatment and underwent long-term treatment for further investigation. In the survival study, the animal mortality criterion was that the tumour volume reached 3000 mm^3 or the individual animal died, and the animal survival time was statistically analysed.

[3] = tested on: SU-DHL-6 cells; assay: In vitro cytotoxicity study (MTT); assay type: cell-based; settings: Homo sapiens, 48 h
Description: To investigate the anti-tumour proliferation effect of PM/HP-β-CD, in vitro cytotoxicity test was performed. After being seeded with 96-well plates, the in vitro cultured cells were allowed to acclimate for about 1 h. The experimental group was added with 100 μL of medium containing free PM, HP-β-CD, or PM/HP-β-CD with different concentrations, and the control group was added with an equal volume of fresh medium. Each group was set up with 3 parallel holes and a cultured incubator with 5% CO2 at 37 °C. At 48 h, the survival rate of each group was calculated with the MTT method, and the IC50 value was fitted.

[4] = tested on: Ki-67; assay: Immunohistochemical detection of Ki-67 in tumour tissue; assay type: in vivo, NOD/SCID mice; settings: immunostaining after PM treatment, SU-DHL-6 subcutaneous tumour
From the text: (§2) The proliferation of tumour cells was detected by immune histochemical staining with the primary antibody of Ki-67 (Lab Vision, MA, USA). DNA double-stranded breaks were investigated by staining with the primary antibody of H2A histone family member X (γH2AX, Upstate Biotechnology, Lake Placid, NY, USA). Primary antibodies of acetyl histone H4 (Ac-H4, Upstate Biotechnology, Lake Placid, NY, USA) were used to detect the acetylation of Histone H4. FITC-labelled secondary antibodies (F-0382; Sigma) were applied with a concentration of 1:500. The images were taken with the Nikon E800 scope.

[5] = tested on: γH2AX; assay: Immunohistochemical detection of γH2AX in tumour tissue; assay type: in vivo, NOD/SCID mice; settings: immunostaining after PM treatment, SU-DHL-6 subcutaneous tumour
From the text: as §2

[6] = tested on: human double-hit lymphoma SU-DHL-6 cell line xenografts; assay: Oral versus intravenous administration study in SU-DHL-6 xenografts; settings: for Number End/begin / RTV / Tumor Weight (g) X ±SD / Tumor Weight Inhibition (%) / Tumor volume T/C% / animal status / deaths: 16 days; for Body weight (g) X ± SD Begin / Tumor volume (mm^3) X ±SD Begin: begin of treatment; for Body Weight (g) X ±SD End / Tumor volume (mm^3) X ±SD End: end of 16 days treatment; for animal status / deaths: 10 mg/kg
Description: To determine whether PM is suitable for oral or intravenous administration, the anti-tumor activity and the safety were investigated in a human double-hit lymphoma SU-DHL-6 cell line xenografts established in immunodeficiency mice. Each mouse was injected subcutaneously with 0.1 mL of cell suspension containing 1×10^6 cells. […] Tumor size and body weight were measured during the experimental period and the tumor volumes were calculated according to the formula: volume (mm^3) = length × width^2 × 0.5. When the experimental period was over, all the mice were sacrificed, and the tumor was weighed and photographed.

[7] = Phase solubility analysis of PM in HP-β-CD solutions; assay type: physicochemical; settings: inclusion of PM by HP-β-CD
Description: Excess PM were added into 6 mL HP-β-CD solutions ranged from 0 to 150 mg/mL [14, 19]. The mixture solution was stirred at 1000 rpm for 24 h at 37 °C and filtered using 0.22 μm Millipore filtration. The apparent solubility of PM was calculated, and the stability constant (Ks) was calculated as the Higuchi-Connors equation, Equation (a). The Gibbs free energy (ΔG) was calculated as Equation (b), R represents the general gas constant and T represents the Kelvin temperature. (a) Ks=slope/(S0×(1–slope)) (b) ΔG=−RTlnKs

[8] = In vivo pharmacokinetics after oral or intravenous administration; settings: SD rats, 10 mg/kg; for Cmax: read-out: maximum value (Cmax) of plasma concentration
Description: Adult SD rats (180–220 g) were used to investigate the in vivo kinetics of PM after oral or intravenous administration. The rats were fasted overnight and divided into oral and intravenous groups, containing three male and three female rats in each group. Then, 10 mg/kg of PM was administered in each rat. 0.2 mL of jugular vein blood samples were collected at a predetermined time interval of 0, 5, 15, 30, 60, 120, 240, 360, 480, and 600 min, centrifuged at 1500 rpm for 15 min at 4 °C to separate the plasma, and stored at −80 °C for the analysis by UPLC-MS. After the test, Phoenix WinNonlin software and non-compartmental analysis were used to calculate parameters such as maximum plasma concentration (Cmax), plasma clearance (CL), time to achieve maximum plasma concentration (Tmax), steady-state apparent distribution volume (Vdss), elimination half-life (t1/2), area under the concentration-time curve (AUC), and related bioavailability.

[9] = tested on: acetyl histone H4 (Ac-H4); assay: Immunohistochemical detection of Ac-H4 in tumour tissue; assay type: in vivo, NOD/SCID mice; settings: immunostaining after PM treatment, SU-DHL-6 subcutaneous tumour
From the text: as §2

[10] = tested on: human double-hit lymphoma SU-DHL-6 xenograft tumours; assay type: in vivo
Description: as §1
When the experimental period was over, the tumour was weighed and photographed, the main organs and tumours were collected, fixed, and embedded in paraffin for Histological and immunohistochemical analysis.

[11] = both sexes, rat, plasma, intravenous administration
[12] = both sexes, rat, plasma, oral administration
[13] = positive control groups, dose column – (RTX 10 mg/kg), 14 days
[14] = positive control groups, dose column – (RTX 10 mg/kg), begin of treatment
[15] = positive control groups, dose column – (RTX 10 mg/kg), end of 14 days treatment

CN(Cc1nc2c(N3CCOCC3)nc(-c3ccc(N)cc3)nc2n1C)c1ncc(C(=O)NO)cn1 [PM, Purinostat mesylate]
apoptotic SU-DHL-6 cells ([1]; 3 nM): 14.99%
apoptotic SU-DHL-6 cells ([1]; 6 nM): 55.2%
Median survival (day) ([2]; PM for Injection 10 mg/kg): 30^bei day
Median survival (day) ([2]; PM for Injection 20 mg/kg): 30 ^bei day
IC50 [3]: 1.88 nM
expression of Ki-67 in tumour tissue [4]: decreased
expression of γH2AX in tumour tissue [5]: increased
Number End/begin ([6]; i.v. 10 mg/kg (PM/HP-β-CD)): 8/8
RTV ([6]; i.v. 10 mg/kg (PM/HP-β-CD)): 6.84^cfi
Tumor Weight (g) X ±SD ([6]; i.v. 10 mg/kg (PM/HP-β-CD)): 1.51±0.49^cfi g
Tumor Weight Inhibition (%) ([6]; i.v. 10 mg/kg (PM/HP-β-CD)): 69.96%
Tumor volume T/C% ([6]; i.v. 10 mg/kg (PM/HP-β-CD)): 30.87%
Body weight (g) X ± SD Begin ([6]; i.v. 10 mg/kg (PM/HP-β-CD)): 22.6 ± 1.7 g
Tumor volume (mm^3) X ±SD Begin ([6]; i.v. 10 mg/kg (PM/HP-β-CD)): 194.6±26.1 mm^3
Body Weight (g) X ±SD End ([6]; i.v. 10 mg/kg (PM/HP-β-CD)): 24.9 ± 1.9 g
Tumor volume (mm^3) X ±SD End ([6]; i.v. 10 mg/kg (PM/HP-β-CD)): 1321.9±317.2 mm^3
animal status / deaths ([6]; oral group): one of the PM oral groups died
Number End/begin ([6]; p.o. 10 mg/kg (PM suspension)): 7/8
RTV ([6]; p.o. 10 mg/kg (PM suspension)): 16.71^a
Tumor Weight (g) X ±SD ([6]; p.o. 10 mg/kg (PM suspension)): 4.57 ± 0.99 g
Tumor Weight Inhibition (%) ([6]; p.o. 10 mg/kg (PM suspension)): 9.16%
Tumor volume T/C% ([6]; p.o. 10 mg/kg (PM suspension)): 75.46%
Body weight (g) X ± SD Begin ([6]; p.o. 10 mg/kg (PM suspension)): 21.6 ± 1.2 g
Tumor volume (mm^3) X ±SD Begin ([6]; p.o. 10 mg/kg (PM suspension)): 199.5±22.5 mm^3
Body Weight (g) X ±SD End ([6]; p.o. 10 mg/kg (PM suspension)): 24.9 ± 3.0 g
Tumor volume (mm^3) X ±SD End ([6]; p.o. 10 mg/kg (PM suspension)): 3300.6±715.1 mm^3
animal status / deaths ([6]; venous group): did not have animals in abnormal status
Gibbs free energy [7]: -21.15 kJ/mol
CL ([8]; p.o.): 437 ± 197.44 L/h/kg
Tmax ([8]; both sexes, rat, plasma, iv): 4.67 min
clearance ([8]; both sexes, rat, plasma, iv): 225 mL/min/kg
half-life ([8]; both sexes, rat, plasma, iv): 20.4 ± 19.7 min
Tmax ([8]; both sexes, rat, plasma, po): 5.67 min
half-life ([8]; both sexes, rat, plasma, po): 97.2 ± 41.5 min
AUC [8, 11]: 837 ± 277 ng·h/mL
Cmax [8, 11]: 3140 ± 1320 ng/mL
AUC [8, 12]: 56.2 ± 24.6 ng·h/mL
Cmax [8, 12]: 49.3 ± 26.4 ng/mL
bioavailability ([8]; both sexes, rat, plasma, oral versus intravenous, read-out: calculated bioavailability): 6.71%
expression of Ac-H4 in tumour tissue [9]: increased
Body weight (g) X ± SD Begin ([10]; mouse, in vivo, iv, 2.5 mg/kg): 22.0 ± 0.3 g
Number End/begin ([10]; mouse, in vivo, iv, 2.5 mg/kg): 7/7
RTV ([10]; mouse, in vivo, iv, 2.5 mg/kg): 14.21^begkmp
Tumour volume (mm^3) X ± SD Begin ([10]; mouse, in vivo, iv, 2.5 mg/kg): 140.3 ± 23.7 mm^3
Tumour volume (mm^3) X ± SD End ([10]; mouse, in vivo, iv, 2.5 mg/kg): 1970.1 ± 638.3 mm^3
Tumour volume T/C% ([10]; mouse, in vivo, iv, 2.5 mg/kg): 54.53%
Tumour weight (g) X ± SD ([10]; mouse, in vivo, iv, 2.5 mg/kg): 2.10 ± 0.98^cekmp g
Tumour weight Inhibition (%) ([10]; mouse, in vivo, iv, 2.5 mg/kg): 57.35%
Body weight (g) X ± SD Begin ([10]; mouse, in vivo, iv, 5 mg/kg): 22.3 ± 0.5 g
Number End/begin ([10]; mouse, in vivo, iv, 5 mg/kg): 7/7
RTV ([10]; mouse, in vivo, iv, 5 mg/kg): 8.26^cfiloq
Tumour volume (mm^3) X ± SD Begin ([10]; mouse, in vivo, iv, 5 mg/kg): 146.2 ± 26.5 mm^3
Tumour volume (mm^3) X ± SD End ([10]; mouse, in vivo, iv, 5 mg/kg): 1150.0 ± 510.6 mm^3
Tumour volume T/C% ([10]; mouse, in vivo, iv, 5 mg/kg): 31.69%
Tumour weight (g) X ± SD ([10]; mouse, in vivo, iv, 5 mg/kg): 1.39 ± 0.47^cfhlnr g
Tumour weight Inhibition (%) ([10]; mouse, in vivo, iv, 5 mg/kg): 71.80%
Body weight (g) X ± SD Begin ([10]; mouse, in vivo, iv, 10 mg/kg): 22.3 ± 0.5 g
Number End/begin ([10]; mouse, in vivo, iv, 10 mg/kg): 7/7
RTV ([10]; mouse, in vivo, iv, 10 mg/kg): 7.39 ^cfiloq
Tumour volume (mm^3) X ± SD Begin ([10]; mouse, in vivo, iv, 10 mg/kg): 150.9 ± 32.6 mm^3
Tumour volume (mm^3) X ± SD End ([10]; mouse, in vivo, iv, 10 mg/kg): 1084.2 ± 502.8 mm^3
Tumour volume T/C% ([10]; mouse, in vivo, iv, 10 mg/kg): 28.37%
Tumour weight (g) X ± SD ([10]; mouse, in vivo, iv, 10 mg/kg): 0.90 ± 0.43^cfilor g
Tumour weight Inhibition (%) ([10]; mouse, in vivo, iv, 10 mg/kg): 81.67%
Body weight (g) X ± SD Begin ([10]; mouse, in vivo, iv, 20 mg/kg): 22.2 ± 0.3 g
Number End/begin ([10]; mouse, in vivo, iv, 20 mg/kg): 7/7
RTV ([10]; mouse, in vivo, iv, 20 mg/kg): 4.31^cfilor
Tumour volume (mm^3) X ± SD Begin ([10]; mouse, in vivo, iv, 20 mg/kg): 158.9 ± 22.6 mm^3
Tumour volume (mm^3) X ± SD End ([10]; mouse, in vivo, iv, 20 mg/kg): 664.3 ± 190.7 mm^3
Tumour volume T/C% ([10]; mouse, in vivo, iv, 20 mg/kg): 16.53%
Tumour weight (g) X ± SD ([10]; mouse, in vivo, iv, 20 mg/kg): 0.73 ± 0.28 ^cfilor g
Tumour weight Inhibition (%) ([10]; mouse, in vivo, iv, 20 mg/kg): 85.20%

Rituximab [RTX, reference compound]
RTV [10, 13]: 24.16
Tumour volume T/C% [10, 13]: 92.71%
Tumour weight (g) X ± SD [10, 13]: 3.47 ± 1.07^ad g
Tumour weight Inhibition (%) [10, 13]: 29.47%
Body weight (g) X ± SD Begin [10, 14]: 22.4 ± 0.4 g
Tumour volume (mm^3) X ± SD Begin [10, 14]: 153.7 ± 33.1 mm^3
Body Weight (g) X ±SD End [10, 15]: 25.1 ± 1.0 g
Tumour volume (mm^3) X ± SD End [10, 15]: 3505.3 ± 917.1 mm^3
Number End/begin ([10]; positive control groups, dose column – (RTX 10 mg/kg), regimens Table 2, 14 days): 7/7

From article PMC8903780, “Therapeutic efficacy of an injectable formulation of purinostat mesylate in SU-DHL-6 tumour model” (Annals of Medicine, 2022)
